This note sets out measurements from publication PMC4735555, “Crystal structure of the N-myristoylated lipopeptide-bound MHC class I complex” (Nature Communications, 2016).

For the assay, the system named is 2N5.1 TCR. Nature of the assay: SPR binding of soluble 2N5.1 TCR to antigen-loaded Mamu-B*098. As to conditions: in words; Biacore 3000, 30 °C; soluble 2N5.1 TCR αβ dimer; lipopeptide-loaded Mamu-B*098 immobilized; pH 7.5. Also noted: species or system rhesus macaque. From the text: Single-chain MHC proteins in which β2m was linked via a Gly-Ser linker (GGGGSGGSGSGGGSS) to the ectodomain of either Mamu-B*098 or Mamu-A*02, followed by a biotinylation sequence peptide (LHHILDAQKMVWNHR), were also expressed in E. coli and were purified in a similar manner to the trimer complex of Mamu-B*098, β2m and C14nef5. The β2m-linked Mamu-B*098 protein was refolded without C14nef5, whereas the β2m-linked Mamu-A*02 protein was refolded in the presence of the YY9 peptide (YTSGPGIRY). These recombinant proteins (3 mg) were biotinylated by being incubated for 12 h at 20 °C with 2 μg of BirA enzyme (Sigma-Aldrich, St Louis, MO) in a biotinylation buffer containing 100 mM Tris-HCl pH 8.0, 5 mM MgCl2, 4.5 mM ATP and 4 mM D-biotin, and were purified by size-exclusion chromatography.
TCR dimers were generated by the disulfide-linked TCR method. […]
The binding of ligands to MHC class I molecules was analysed using the Octet RED96 system equipped with a streptavidin-conjugated biosensor (Pall ForteBio, Menlo Park, CA) according to the manufacturer's instructions. […] After reference subtraction, binding signals were analysed using the BIAevaluation 3.1 software. […]
For orientation: Surface plasmon resonance follows binding to a sensor surface in real time, without labels.

On to “C14-Gly-Gly-Ala-Ile-Ser [C14nef5, N-myristoylated 5-mer peptide (C14-Gly-Gly-Ala-Ile-Ser; C14nef5) derived from the SIV Nef protein]”, for which the “interaction of 2N5.1 TCR with lipopeptide-loaded Mamu-B*098 (SPR)” value is recorded as “high-affinity interaction”.
